Several values for one entry are separate records, joined by “and”; a condition that tells them apart may be missing. Identical values can stand only once. Counter-ions that a name gives are not always drawn. Like-named read-outs stand apart in the source and are kept apart here.
Legend:
VEGF = assay: ELISA VEGF assay (DFO-treated cells); type: cell-based, Human; details: VEGF released into media by DFO-treated cells, normalized to cell count; read-out: VEGF IC50
Source text: ELISA (Enzyme-Linked ImmunoSorbent Assay) VEGF studies were done following manufacturer's instructions using the Endogen® Human VEGF ELISA kit, Catalog No. […] (Pierce Biotechnology, Inc., Rockford, Ill. USA). Hypoxic conditions are created for the cells by treating them with desferrioxamine (DFO), which chelates iron and causes the cells to secrete VEGF into the media. The supernatant (media) was removed and frozen for testing, and the cells were counted with the Trypan Blue assay so that the results can be normalized to cell count. The VEGF is measured with a sandwich ELISA that captures the protein in media on an antibody-coated microplate, and then uses a biotinylated antibody reagent to detect the protein. Results from a standard curve enable the user to quantify the amount of protein in each sample.

[1] = system: apoptosis of cells based on DNA fragmentation; assay: TiterTACS DNA fragmentation apoptosis assay; type: cell-based; details: TiterTACS apoptosis detection
Description: Antiproliferative activity is determined using the TiterTACS® Apoptosis Detection Kit (R&D Systems Inc., Minneapolis, Minn. USA) relating to apoptosis of cells based on DNA fragmentation, and by the ELISA VEGF ([…]) and survivin assays.
In the DNA fragmentation assay, in situ detection of apoptosis is specifically achieved with TiterTACS® 96-well Apoptosis Detection kit, Catalog No. TA600 (R&D Systems, Inc.). The TiterTACS® assay provides quantification of apoptosis in cultured cells without direct counting of labeled cells using colorimetric detection. Cells are treated with the test compounds, left untreated as experimental negative controls, or treated with TACS nuclease as positive controls. TACS nuclease allows positive controls to be generated for each experimental system: a brief treatment of cells with the TACS nuclease prior to labeling generates DNA breaks in every cell, providing an appropriate positive control specific for the system under study. The TdT enzyme that catalyzes the addition of dNTPs to DNA fragments allows for colorimetric detection of at 450 nm by using a streptavidin-HRP solution followed by the TACS-Sapphire substrate. A high absorbance at 450 nm is indicative of apoptosis in the cells. Treated cells are compared to untreated cells and to nuclease-cleaved cells to assess the extent of apoptosis.

MCP-1 = MCP-1 protein production in TNF-α-treated primary human keratinocytes; type: cell-based
Description: Anti-inflammatory activity was determined based on the effect of tested compounds on primary human keratinocytes (PHKs). PHKs play an important role in inflammatory processes, synthesizing a number of cytokines, adhesion molecules and growth factors. Studies were conducted to determine whether tested compounds could inhibit keratinocytes to prevent or reduce production of interferon gamma (IFN-γ), interleukin-8 (IL-8), tumor necrosis factor alpha (TNF-α), granulocyte/macrophage colony-stimulating factor (GM-CSF), intercellular adhesion molecule-1 (ICAM-1, also known as CD54) and monocyte chemotactic protein-1 (MCP-1). PHKs are first treated with TNF-α to induce a pro-inflammatory state and release of pro-inflammatory cytokines. Specific cytokines are then assayed following manufacturer's instructions using R&D Systems. Inc.'s protein assays (Quantikine ELISA kits; Catalog Nos. DCP00 for MCP-1 kit, DCM00 for GM-CSF kit, and DIF50 for IFN-γ).
Anti-inflammatory activity of several of the compounds of the previously described working examples was determined based on the effect of tested compounds on primary human keratinocytes (PHKs) as described above and following the manufacturer's instructions for the various kits used in the studies. While these studies more typically are used mostly for anti-inflammatory investigations, they can also apply to vascular diseases, since the results in keratinocytes may be extrapolated to vascular endothelium.
Only MCP-1 data with PHKs is dose-dependent, so an IC50 for MCP-1 can be calculated, but not for the other cytokines.

[2] = system: HeLa (cervical adenocarcinoma); assay: MTS cell viability assay, HeLa; type: cell-based; details: read-out: HeLa IC50
Source text: (§1) Studies performed regarding cytotoxicity included the well-known MTS, Trypan Blue and MTT protocols. The MTS studies were done using the CellTiter 96®AQueous One Solution Cell Proliferation Assay (Promega Corporation, Madison, Wis. USA). Metabolically active, namely viable, cells turn MTS, a tetrazolium compound (3-(4,5-dimethylthiazol-2-yl)-5-(3-carboxymethoxyphenyl)-2-(4-sulfophenyl)-2H-tetrazolium, inner salt) into colored formazan, which is soluble in tissue culture medium. The measurement of the absorbance of the formazan is read at 490 nm. The ready to use reagent is added directly to the cells in media in 96-well plates, incubated 1-4 hours and the results are recorded by the plate reader. The IC50 is estimated by graphing the gathered data. The IC50 is the concentration of the tested material that inhibits 50% of growth or viability of the tested material compared to a control.
(§2) Three cell lines obtained from ATCC and maintained as directed by ATCC were tested: HeLa (cervical adenocarcinoma), A549 (lung carcinoma), and COS-7 (SV40 transformed monkey kidney). Studies of these cell lines are considered to be indicative of the effect of tested substances on mammalian, including human, diseases.
(§3) All compounds were dissolved in DMSO and DMSO is used as the placebo. The samples were first dissolved into 10 mM dilutions in DMSO and then diluted further to 5, 1, 0.5, 0.1, 0.05, and 0.01 mM solutions. These solutions were added to the media at a 1% concentration (1 μl to 100 μl media) to treat the cells with 100, 50, 10, 5, 1, 0.5, and 0.1 μM of the compound. […] Solutions were checked before use for precipitation, especially the 10 mM solutions. If there was precipitation, they were warmed 65° C. and added to warmed media.
(§4) Wells on a 96-well plate were seeded with 1.5-8×10^4 cells in 100 μl media and incubated overnight. The outside wells of the plate were filled with 200 μl sterile, deionized (DI) water to curb media evaporation. After 24 hours, test chemicals were prepared in media at a concentration of 1% media volume. The test sample media were added, mixing with pipette before adding 100 μl per well. Media was added to the “Media Only” wells. The well plate and its contents were incubated for 24-72 hours, depending on the study conducted. On the thy of the MTS assay, the MTS reagent was removed from the refrigerator and brought to room temperature. Using the multichannel pipette, 20 μl of the MTS reagent was added to each well and incubated for one to four hours. The plate was read at 490 nm with a reference wavelength of 690 nm after one hour in the incubator thereafter until the blank wells were at about 0.2 OD. The results were then scanned into a Microsoft® Excel® template designed to perform all necessary calculations whim data are entered. The data were checked for statistical errors; data points that are within 10% of the mean of the data points for that group were included. The average of the blanks (“Media Only”) were subtracted and the data were inserted into a chart that represents growth response, treated/untreated.

A549 (lung carcinoma) = assay: MTS cell viability assay, A549; type: cell-based; details: Homo sapiens
Source text: as §1, §2, §3, §4

[3] = system: TAT-mediated transactivation of HIV transcription (HIV-1 LTR promoter); assay: SEAP assay of TAT-mediated transactivation (antiviral activity); type: cell-based, human immunodeficiency virus (HIV); details: for EC50: Human immunodeficiency virus 1, COS-7, 48 h, read-out: SEAP EC50
Description: Antiviral activity is determined using a SEAP (SEcreted Alkaline Phosphatase) assay, in which cells are co-transfected with SEAP and TAT plasmids. TAT is a transactivator, human immunodeficiency virus (HIV) gene expression and is one of the two or more necessary viral regulatory factors (TAT and REV) for HIV gene expression. TAT acts iv binding to the TAR RNA element and activating transcription from the long terminal repeat (LTR) promoter. […] Previous studies have shown that TAT mediates reduction of antibody-dependent T cell proliferation, contributing substantially to the failure of the immune response. TAT also directly stimulates Kaposi's cell growth.
Since TAT has no apparent cellular homologs, this strong positive regulator has become an attractive target for the development of anti-AIDS drugs. In contrast to currently available HIV reverse transcriptase inhibitors (AZT, DDI) or potential protease inhibitors that prevent new rounds of infection, an inhibitor which suppresses viral gene TAT regulated expression of integrated proviral DNA will arrest the virus at an early stage (Hsu et al., Science 254:1799-1802, 1991). Efforts aimed at the elucidation of factors which control gene expression at transcriptional and post-transcriptional levels in host eukaryotes have recently made possible quantitative assessment of TAT function (Sim, Ann. N.Y. Acad. Sci. 616: 64-70, 1990). To screen for inhibitors for TAT regulated transactivation (TAT-TRS), the SEAP reporter gene is put under the control of HIV-1 LTR promoter in the plasmid pBC12/HIV/SEAP. The TAT-coded activity is supplied by a second plasmid construct pBC12/CMV/t2. Transient co-transfection of COS-7 cells with these two plasmids leads to secretion of alkaline phosphatase into the culture medium which is analyzed by a simple colorimetric assay (Berger et al., Gene 66: 1-10, 1988). […]
In the SEAP assay, an inhibitor should cause reduction of SEAP reporter gene expression via transactivation of the HIV-1 LTR promoter by TAT protein (TAT-TRS). […] SEAP is detected colorimetrically by the para-nitrophenyl phosphate substrate at 405 nm. […] The cells are analyzed by the MTT assay to compare cytotoxicity to SEAP inhibition. […]
COS-7 (green monkey kidney) cells were co-transfected using Fugene 6 reagent (Roche Applied Science, Cat. No. 11815091001, Indianapolis, Ind., USA) with two plasmids: pHIVSEAP (SEAP expression vector under the control of the HIV LTR promoter) and pCTAT (HIV TAT transcription factor expression vector under the control of a CMV (cytomegalovirus) promoter). After test compound treatment for 48 hours, samples were analyzed for […] at 405 nm after addition of the p-nitrophenyl phosphate substrate. The percentage of SEAP activity inhibition was calculated in relation to the placebo control.

COS-7 cells = assay: MTT cytotoxicity assay in COS-7 cells (run with SEAP); type: cell-based, green monkey; details: COS-7 test cells of the SEAP assay
Description: The MTT assay is a colorimetric method for determining the number of viable cells. Metabolically active cells turn the MIT reagent, (3-(4,5-dimethylthiazol-2-yl)-2,5-diphenyltetrazolium bromide, into purple-colored formazan crystals that are solubilized in dimethyl sulfoxide (DMSO). The MTT reagent is added to MTT (colorless) media. The media is added to the cells and they are incubated for 4 hours. DMSO is added to the cells and mixed. The colored solutions are then read at 540 nm and corrected at 630 nm. The IC50 is estimated by graphing the gathered data.
The cells are analyzed by the MTT assay to compare cytotoxicity to SEAP inhibition. The goal is for the drug to inhibit SEAP without being too toxic.
The MTT assay measures cellular-proliferation and is used to verify that the levels of SEAP activity are not solely due to cytotoxicity. These assays was used in screening for potential drug compound leads as antiviral agents, and particularly, anti-HIV candidates.

[4] = TNF-α-treated PHK; read-out: MCP-1 IC50
[5] = read-out: MCP-1 IC50; TNF-α-treated PHK

SMILES | IC50 (MCP-1; [4]) | IC50 (A549 (lung carcinoma); A549, read-out: A549 IC50) | IC50 (MCP-1; [5]) | IC50 ([2]; Homo sapiens, HeLa) | EC50 [3] | further results
C[C@H](Cc1ccc(OCCCN2CCCCC2)c(OCCCN2CCCCC2)c1)[C@@H](C)Cc1ccc(OCCCN2CCCCC2)c(OCCCN2CCCCC2)c1.Cl.Cl.Cl.Cl [Compound B, 1,4-bis{3,4-bis[3-(piperidin-1-yl)propoxy]phenyl}-2,3-dimethyl-(2R,3S)-butane tetrakis-hydrochloride salt] | 2 µM | – | – | – | – | IC50 (VEGF): ~2 µM and 2 µM; DNA fragmentation [1]: Negative; IC50 ([2]; MTS assay): 1 to 5 µM
Cc1nc(COc2ccc(C[C@@H](C)[C@@H](C)Cc3ccc(OCc4csc(C)n4)c(OCc4csc(C)n4)c3)cc2OCc2csc(C)n2)cs1 [Compound F, 1,4-bis{3,4-bis(2-methyl-thiazol-4-yl-methoxy)phenyl}-2,3-dimethyl-(2R,3S)-butane tetrakis-hydrochloride salt] | – | > 100 µM | > 100 µM | > 100 µM | – | SEAP EC50 ([3]; COS-7 cells co-transfected with pHIVSEAP and pCTAT, 48 hours treatment): Variable; COS-7 IC50 (COS-7 cells): Variable
C[C@H](Cc1ccc(OCCO)c(OCCO)c1)[C@@H](C)Cc1ccc(OCCO)c(OCCO)c1 [Compound I, 1,4-bis{3,4-bis(2-hydroxyethoxy)phenyl}-2,3-dimethyl-(2R,3S)-butane] | – | 65 to 70 µM | 25 µM | 20 to 30 µM | 60 to 80 µM | –
C[C@H](Cc1ccc(OCCOCCO)c(OCCOCCO)c1)[C@@H](C)Cc1ccc(OCCOCCO)c(OCCOCCO)c1 [Compound J, 1,4-bis{3,4-bis[2-(2-hydroxyethoxy)ethoxyl]phenyl}-2,3-dimethyl-(2R,3S)-butane] | 70 µM | – | – | – | 80 to 90 µM | IC50 (A549 (lung carcinoma); A549, MTS assay, read-out: A549 IC50): 80 to 90 µM; IC50 (COS-7 cells; Chlorocebus sabaeus): 80 to 90 µM; IC50 ([2]; Homo sapiens, HeLa, MTS assay): > 100 µM

— patent publication US20150374709A1, “TETRA-SUBSTITUTED NDGA DERIVATIVES VIA ETHER BONDS AND CARBAMATE BONDS AND THEIR SYNTHESIS AND PHARMACEUTICAL USE” (ERIMOS PHARMACEUTICALS LLC, priority 2006, published 2015)
